“And” between values parts separate entries of the source, which are not always exact repeats. Equal values may be shown once.
Columns and labels:
MIA PaCa-2 cells = assay: In vitro cytotoxicity (MTS, 72 h) MIA PaCa-2; format: cell-based, human; details: 72 h incubation, Dox Equiv. concentration
Protocol: (§1) In vitro cytotoxicity C26 murine colon carcinoma cells and three different pancreatic cancer cell lines, BxPC-3, AsPC-1, and MIA PaCa-2, were used to study the in vitro cytotoxicity of ABD-DOX and Dox. Cells were cultured and grown as monolayers at 37° C. with C02 in a humidified incubator and were passaged at ˜80% confluency using 0.05% trypsin-EDTA (Invitrogen, Carlsbad, CA). C26, BxPC-3, AsPC-1, and MIA PaCa-2 cells were seeded in 96-well plates (5,000 cells/well) and incubated overnight. Three-fold serial dilutions of drug were then added to the wells in triplicate and also to control wells (media with no cells) to correct for the background Dox absorbance. After 72 h treatment, 20 μL MTS reagent was added to each well and was incubated for 3 h at 37° C., and the absorbance at 490 nm was measured using a Victor3 plate reader (Perkin Elmer, Boston, MA). Cell viability (%) was defined as the percentage of the absorbance of the drug-treated cells relative to buffer-treated cells and IC50 values were determined using logistic non-linear regression analysis with GraphPad Prism software. The IC50 was defined as the Dox Equiv. concentration of formulations resulting in 50% growth inhibition compared with a negative control, buffer-treated cells.

[1] = system: BxPC-3 pancreatic cancer cells; assay: In vitro cytotoxicity (MTS, 72 h) BxPC-3; format: cell-based, human; details: 72 h incubation, Dox Equiv. concentration
Protocol: as §1

[2] = Dose-escalation study, maximum tolerated dose; format: in vivo, BALB/c mice; details: i.v., healthy BALB/c mice, two weeks; no mortality or body weight loss greater than 15%
Protocol: With these encouraging biodistribution results in hand, tumor regression in vivo by ABD-Dox was investigated. The maximum tolerated dose (MTD) of ABD-Dox was established in healthy mice. A range of doses of ABD-Dox were injected into healthy BALB/c mice, and body weight loss and mortality of the mice were monitored over a two-week period to assess systemic toxicity. […] Using these criteria, the MTD was determined to be 20 mg Dox Equiv.kg^−1 for ABD-Dox (FIG. 7) and 10 mgkg^−1 BW MTD of free Dox (FIG. 8).

[3] = system: C26 murine colon carcinoma cells; assay: In vitro cytotoxicity (MTS, 72 h) C26; format: cell-based; details: 72 h incubation, Dox Equiv. concentration
Protocol: as §1

[4] = Intravenous pharmacokinetics in healthy BALB/c mice
Protocol: Pharmacokinetics and biodistribution Pharmacokinetics and biodistribution experiments were performed to study the concentration of ABD-Dox in blood and tissues over time following intravenous (i.v.) administration. For the pharmacokinetic study, ABD-Dox and Dox in PBS and AlDox in 10 mM sodium phosphate, 5% D-(+)-glucose, pH 5.8 were injected at 5 mg Dox Equiv. per kg of body weight (BW) into healthy BALB/c mice. 10 μL blood samples were collected at 40 s, 15 min and 30 min, and 2, 4, 8, 24, 48, 72 and 96 h post injection and were diluted into heparinized PBS (1 kUmL^−1), and centrifuged at 4,000 rcf, 10 min, 4° C. to collect the plasma. 10 μL of the plasma samples were then diluted in 490 μL of acidified isopropanol (0.075 M HCl, 10% water) and incubated overnight at 4° C. For the biodistribution study, ABD-Dox and Dox in PBS were injected at 5 mg Dox Equiv.kg^−1 BW into C26 tumor-bearing BALB/c mice. At 2 h, 24 h, and 72 h post-injection, mice were sacrificed and tumor, heart, lung, liver, spleen, kidney and muscle tissues were dissected, weighed, homogenized in acidified isopropanol using a Mini-Beadbeater (Biospec, Bartlesville, OK) with 2 mm diameter zirconia beads for 1-2 min, and were incubated overnight at 4° C. Following overnight incubation in acidified isopropanol, plasma and tissue samples were centrifuged at 16,000 rcf, 4° C. for 10 min and the supernatants were loaded onto black 96-well plates in duplicate and the Dox fluorescence was measured using on a Victor3 microplate reader (Perkin Elmer, Waltham, MA) with fluorescence excitation at 485 nm and emission at 590 nm. Tissues were also dissected from three untreated mice, processed in the same manner, serially diluted, and loaded on the plates to prepare a standard curve of fluorescence intensity versus the weight for each tissue from which the background tissue fluorescence was calculated and subtracted for each sample. Serial dilution of free Dox in acidified isopropanol was used as standard to quantify the Dox concentration as […] per liter of plasma (μM) and as the percent of the injected dose per gram (% ID g^−1) in the tumor and other tissues. Plasma concentrations of Dox Equiv. of ABD-Dox versus time were fit to a two-compartment model using SAAM II software (SAAM Institute, Seattle, WA) and the elimination half-life and the area-under-curve were computed. The tissue concentration of Dox. Equiv. of ABD-Dox and free Dox at each time point were compared in GraphPad Prism software (GraphPad, San Diego, CA) by Student's t-test with P<0.05 considered statistically significant.

[5] = Tissue biodistribution in C26 tumor-bearing BALB/c mice; format: in vivo
Description: The tissue concentration of Dox.

[6] = system: AsPC-1 pancreatic cancer cells; assay: In vitro cytotoxicity (MTS, 72 h) AsPC-1; format: cell-based, human; details: 72 h incubation, Dox Equiv. concentration
Protocol: as §1

[7] = system: C26 colon carcinoma tumors; assay: In vivo tumor regression, syngeneic C26 model; design: species or system BALB/c mice; details: 20 mg Dox Equiv.kg^−1 BW
Protocol: (§2) In vivo tumor regression For in vivo tumor implantation, C26 cells at 5×10^5 cells in 30 μL Minimum Essential Medium (MEM) (Invitrogen, Carlsbad, CA) and MIA PaCa-2 cells at 2×10^6 cells in 50 μL 10:90 v/v MEM: Matrigel matrix (Corning Inc, Corning, New York) were inoculated in the right flank of normal and athymic nude BALB/c mice, respectively. Tumor cells were allowed to grow until the tumor volume, calculated as π/6×length×width^2, reached 75-100 mm^3 for C26 tumors and 100-125 mm^3 for MIA PaCa-2 tumors. Tumor bearing mice were then treated with ABD-Dox at 10 and 20 mg Dox Equiv.kg^−1 BW, AlDox at 20 mg Dox Equiv.kg^−1 BW, and free Dox at 10 mgkg^−1 BW. Tumor volumes and body weights were monitored for 100 days after treatment and mice displaying excessive tumor volume (>[…]), body weight loss (>15%), or ill health were euthanized. Tumor growth and survival data were analyzed by GraphPad Prism software. Survival curves were generated with the Kaplan-Meier method and compared with the log-rank (Mantel-Cox) test. Tumor growth data were compared with a paired one-way ANOVA followed by Tukey-Kramer (Tukey's) post-hoc test. P<0.05 was considered as statistically significant.
(§3) For in vivo tumor regression studies, a single dose of ABD-Dox was injected via tail vein at 10 mg Dox Equiv.kg^−1 BW (MTD of free Dox) and 20 mg Dox Equiv.kg^−1 BW (MTD of ABD-Dox) in separate cohorts of BALB/c mice with s.c. C26 tumors or nude mice with s.c. MIA Paca-2 tumors. Free Dox was injected at its MTD of 10 mgkg-1 BW, and AlDox was injected at 20 mg Dox Equiv.kg^−1 BW, a dose that was reported to be safe in previous studies. All animals were injected when the tumors were 75-100 mm; in size for C26 tumors and 100-125 mm^3 for MIA PaCa-2 tumors.

Aqueous solubility = format: physicochemical
Protocol: To remove the ELP160 tag, the KEKE-ELP160-srt-ABD-Dox conjugate was buffer exchanged into sortase reaction buffer, and was reacted with (His)6-sortase A-ELP40 in the presence of a 50 fold molar excess of triglycine (FIG. 2A). The efficiency of the sortase reaction, defined as the percent conversion of ELP-ABD-Dox substrate to ABD-Dox, was determined by size exclusion HPLC and was calculated to be ≥85% (FIG. 3A). The ABD-Dox product was then separated from (His)6-sortase A-ELP40, the cleaved KEKE-ELP160 tag, and unreacted KEKE-ELP160-srt-ABD-Dox in the sortase reaction solution by preparative size exclusion chromatography (SEC). The number of Dox molecules conjugated per ABD (Dox/ABD molar ratio) was measured before the sortase reaction by dissolving the lyophilized KEKE-ELP160-srt-ABD-Dox conjugate in PBS and calculating the moles of KEKE-ELP160-srt-ABD-Dox and Dox gravimetrically and spectrophotometrically at 488 nm, respectively. 3-4 Dox molecules were attached to each KEKE-ELP160-srt-ABD-(CGG)8. However, following removing the ELP160 tag, the resulting ABD-Dox conjugate was too hydrophobic and insoluble in pH 7.4 PBS because of the high number of conjugated Dox molecules. […] Formulation of AlDox in acidic pH, however, is undesirable as it can trigger the premature, in vitro degradation of the hydrazone bond between Dox and EMCH, converting AlDox back to free Dox.

[8] = system: MIA PaCa-2 pancreatic tumor xenografts; assay: In vivo tumor regression, MIA PaCa-2 xenograft model; design: species or system nude BALB/c mice
Protocol: as §2, §3

COc1cccc2c1C(=O)c1c(O)c3c(c(O)c1C2=O)C[C@@](O)(C(=O)CO)C[C@@H]3O[C@H]1C[C@H](N)[C@H](O)[C@H](C)O1 [free Dox, Doxorubicin, reference compound]
IC50 (MIA PaCa-2 cells): 40 nM | IC50 [1]: 400 nM | maximum tolerated dose (MTD) [2]: 10 mgkg^−1 BW | IC50 [3]: 500 nM and 510 nM | concentration in blood relative to initial concentration ([4]; 15 min after i.v. injection): less than 2% | in vivo elimination half-life ([4]; i.v., 5 mg Dox Equiv. per kg BW): on the order of minutes | concentration of Dox equivalent in tumor ([5]; 2 h after administration): 1.6 % ID.g^−1 | minimum tumor accumulation ([5]; over 72 h): 0.07 % ID.g^−1 | IC50 [6]: 2500 nM

COc1cccc2c1C(=O)c1c(O)c3c(c(O)c1C2=O)C[C@@](O)(/C(CO)=N/NC(=O)CCCCCN1C(=O)C=CC1=O)C[C@@H]3O[C@H]1C[C@H](N)[C@H](O)[C@H](C)O1 [AlDox, Aldoxorubicin, reference compound]
eradication of C26 tumors [7]: incomplete eradication | mice that did not survive over the 100-day course of study [7]: 25% | recurrence of the primary tumor [7]: without recurrence of the primary tumor in any mice | concentration at which acidic pH is required for solubility in aqueous solutions (Aqueous solubility): ≥ 0.5 mg Dox Equiv.mL^−1 | solubility (Aqueous solubility; physiological pH): poor solubility | mice showing tumor disappearance ([8]; by day 15 after treatment, 20 mg Dox Equiv.kg^−1 BW): 50% | tumor recurrence in tumor-eradicated mice ([8]; by day 50, 20 mg Dox Equiv.kg^−1 BW): all
